The test system of one assay is OPN RNA. The experiment in a line: OPN production inhibition assay in un-stimulated PBMC cultures, OPN RNA. The format is cell-based. The settings on record: 10 μM, harvested 1, 3 and 6 days. The protocol:
(§1) 10 μM of each drug was added to un-stimulated PBMC cultures at time=0 and cells were harvested 1,3, and 6 days later for quantitative OPN RNA and protein production analysis.

A further assay has as its system OPN protein. As to the kind of experiment: OPN production inhibition assay in un-stimulated PBMC cultures, OPN protein. The format is cell-based. The settings on record: 10 μM. The protocol:
as §1

Assay [1] deals with CD14+/CD16+ cells. As to the kind of experiment: Exogenous rOPN on macrophage yield, flow cytometry of PBMC cultures. The format is cell-based, human. As to conditions: 10 μg/ml rOPN. The protocol:
To determine the role of exogenous recombinant human OPN (rOPN) in macrophage activation, 10 μg/ml rOPN(R&D Systems, Inc., Minneapolis, Minn.) was added to non-adherent PBMC cultures grown in complete or in serum free medium for 24 and 72 hours, and analyzed via flow cytometry. […] Shown in the upper right quadrant in FIG. 8 is the percentage of cells that are double positive for CD14 and CD16 surface markers.

In assay [2] the test system is CD14+/CD16+ cells. As to the kind of experiment: Macrophage activation via flow cytometry, mononuclear cells cultured for 3 days. The format is cell-based. The protocol: (§2) We investigated macrophage activation via flow cytometry and levels of pro- and anti-inflammatory cytokines in cell culture supernatants of mononuclear cells. 10 μg/ml recombinant human OPN (rOPN) was added to mononuclear cells cultured for 3 days, with and without fetal bovine serum (FBS) in cell culture medium, and analyzed via flow cytometry. […] An increase in CD14+/CD16+ cells was also observed with cells cultured in serum free medium and rOPN in comparison to control. To observe the effects of OPN neutralizing antibody on macrophage activation, 10 μg of antibody was added to cultures for 3 days. […] We also investigated the levels of pro- and anti-inflammatory cytokines in all cell culture supernatants of each time point. On average, IL-6, IL-1β, TNF-α, IL-10, and IL-12p40 were at least 50-fold higher with rOPN at 24 and 72 hours in all culture conditions in comparison to control.

Assay [3] has as its system pro- and anti-inflammatory cytokines. As to the kind of experiment: Cytokine levels in cell culture supernatants of mononuclear cells. The settings on record: rOPN. It counts as cell-based. As for the experimental part: as §2
The mark [4] stands for this setting: 24 and 72 hours, all culture conditions, on average.
The mark [5] stands for this setting: any time point and culture condition.

For `CCNCCCNC/C=C\CNCCCNCC.Cl.Cl.Cl.Cl` [SL47, N,N′-bis(3-ethylaminopropyl)-cis-but-2-ene-1,4-diamine tetrahydrochloride], in the assay with OPN RNA, the “OPN RNA expression” value was “inhibited in a time dependant manner”. Also, the OPN protein production entry with OPN protein is recorded as “Complete inhibition”.

With `CCNCCCCNC[C@@H]1C[C@H]1CNCCCCNCC` [SL93, N,N′-(cyclopropane-1,2-diylbis(methylene))bis(N4-ethylbutane-1,4-diamine)], the “OPN RNA expression” value in the assay with OPN RNA is listed as “inhibited in a time dependant manner”. Also, the OPN protein production entry in the assay with OPN protein is recorded as “Complete inhibition”.

With “rOPN: exogenous recombinant human OPN (R&D Systems, Inc.)”, the “accumulation of CD14+/CD16+ cells vs control” value in the assay on CD14+/CD16+ cells [1] (complete medium, 24 hours) was “no significant accumulation”. The “increase in CD14+/CD16+ cells vs control” value in the assay on CD14+/CD16+ cells [1] (complete medium, 72 hours) stood at 11 fold. Besides, the “increase in CD14+/CD16+ cells vs serum free control” value in the assay on CD14+/CD16+ cells [1] (serum free, 72 hours) amounted to 2.97 fold. The “accumulation of CD14+/CD16+ cells vs FBS-only control” value in the assay on CD14+/CD16+ cells [2] (10 μg/ml rOPN and FBS, 24 hours) is “no significant accumulation”. In the assay with CD14+/CD16+ cells [2] (10 μg/ml rOPN, 72 hours), the “increase in CD14+/CD16+ cells vs control” value amounted to 12 fold. In addition, in the assay with CD14+/CD16+ cells [2] (10 μg/ml rOPN, serum free medium), the “CD14+/CD16+ cells vs control” value is on record as “increase”. In assay [3] (setting [4]), the “IL-1β level vs control” value is on record as “at least 50 fold”, the “IL-6 level vs control” value is “at least 50 fold”, the “IL-10 level vs control” value is “at least 50 fold” and the “IL-12p40 level vs control” value is listed as “at least 50 fold”. Further, the “TNF-α level vs control” value in assay [3] (setting [4]) is listed as “at least 50 fold”. Moreover, in assay [3] (setting [5]), the “IL-4 level vs control” value is listed as “no significant difference” and the “IL-12p70 level vs control” value was “no significant difference”.

B1: MCSF: growth factor MCSF (protein, UniProt P09603 33-554, looked up)
Macrophage colony-stimulating …: EEVSEYCSHMIGSGHLQSLQRLIDSQMETSCQITFEFVDQEQLKDPVCYLKKAFLLVQDIMEDTMRFRDNTPNAIAIVQLQELSLRLKSCFTKDYEEHDKACVRTFYETPLQLLEKVKNVFNETKNLLDKDWNIFSKNCNNSFAECSSQDVVTKPDCNCLYPKAIPSSDPASVSPHQPLAPSMAPVAGLTWEDSEGTEGSSLLPGEQPLHTVDPGSAKQRPPRSTCQSFEPPETPVVKDSTIGGSPQPRPSVGAFNPGMEDILDSAMGTNWVPEEASGEASEIPVPQGTELSPSRPGGGSMQTEPARPSNFLSASSPLPASAKGQQPADVTGTALPRVGPVRPTGQDWNHTPQKTDHPSALLRDPPEPGSPRISSLRPQGLSNPSTLSAQPQLSRSHSSGSVLPLGELEGRRSTRDRRSPAEPEGGPASEGAARPLPRFNSVPLTDTGHERQSEGSFSPQLQESVFHLLVPSVILVLLAVGGLLFYRWRRRSHQEPQRADSPLEQPEGSPLTQDDRQVELPV
Turning to B1, in the assay with OPN RNA, the “OPN RNA expression” value is “no effect”.

For the origin of these results see patent publication US9867794B2, “Regulation of osteopontin” (Pathologica LLC, priority 2007, dated 2018).
